Measured values reported in patent US20200291018A1, “TAM KINASE INHIBITORS” (SYROS PHARMACEUTICALS, INC., priority 2017, published 2020).

Tests used:
[1] = target: T1, MERTK (Homo sapiens, UniProt Q12866); assay: TR-FRET kinase activity assay, MERTK; format: biochemical; details: for IC50: TR-FRET activity assay, ATP at Km, 60 minutes, read-out: Mer IC50; for Mer/Flt3 ratio (FLT3 IC50/Mer IC50): ratio calculated as FLT3 IC50/Mer IC50
T1 sequence (Q12866 21-999): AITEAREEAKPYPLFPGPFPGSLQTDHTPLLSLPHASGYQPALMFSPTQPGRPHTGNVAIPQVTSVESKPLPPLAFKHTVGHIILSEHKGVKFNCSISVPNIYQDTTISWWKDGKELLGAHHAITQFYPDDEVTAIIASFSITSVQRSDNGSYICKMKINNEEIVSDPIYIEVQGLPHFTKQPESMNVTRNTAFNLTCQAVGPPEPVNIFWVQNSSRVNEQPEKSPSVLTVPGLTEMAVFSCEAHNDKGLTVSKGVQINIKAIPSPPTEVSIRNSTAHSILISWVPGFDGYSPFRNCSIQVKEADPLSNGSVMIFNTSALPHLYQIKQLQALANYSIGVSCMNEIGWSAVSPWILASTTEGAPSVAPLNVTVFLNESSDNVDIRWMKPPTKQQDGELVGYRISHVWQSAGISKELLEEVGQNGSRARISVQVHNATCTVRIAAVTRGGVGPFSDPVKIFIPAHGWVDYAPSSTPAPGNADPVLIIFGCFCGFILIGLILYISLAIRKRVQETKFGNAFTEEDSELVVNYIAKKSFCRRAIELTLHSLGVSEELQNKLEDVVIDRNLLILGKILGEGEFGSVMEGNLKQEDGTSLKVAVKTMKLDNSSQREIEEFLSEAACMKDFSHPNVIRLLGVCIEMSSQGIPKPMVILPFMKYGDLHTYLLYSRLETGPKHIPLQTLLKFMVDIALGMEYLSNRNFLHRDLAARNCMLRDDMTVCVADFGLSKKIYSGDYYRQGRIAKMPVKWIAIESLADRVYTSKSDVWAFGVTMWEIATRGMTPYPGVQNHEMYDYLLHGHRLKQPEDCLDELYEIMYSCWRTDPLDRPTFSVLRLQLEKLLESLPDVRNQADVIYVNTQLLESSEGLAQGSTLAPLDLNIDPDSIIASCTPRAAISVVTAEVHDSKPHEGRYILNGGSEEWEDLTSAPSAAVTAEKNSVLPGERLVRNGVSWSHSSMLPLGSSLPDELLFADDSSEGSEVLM
Protocol: (§1) IC50 values for compound inhibition of AXL, FLT3, MERTK and TYRO3 activity were determined using a TR-FRET activity assay. A peptide substrate with a fluorescent label is phosphorylated on a tyrosine by each enzyme, where the now phosphorylated product is bound by a Europium-labeled antibody specific to that phosphorylation site. The proximity between the antibody and the substrate gives a signal known as TR-FRET. As the enzyme is inhibited by compound, less phosphorylated peptide product is made, causing a decrease in overall signal.
(§2) Activity assays were performed in a 384-well, small volume, black microplates in an active enzyme volume of 10 uL and final developed volume of 20 uL. Final assay conditions are 50 mM HEPES pH 7.5, 10 mM MgCl2, 1 mM EGTA, 0.01% Brij 35 and 1 mM DTT, all at RT. Enzyme, substrate-labeled peptide and compound are mixed, and then the reaction is initiated with the addition of ATP at Km concentration for each enzyme. The reaction is allowed to run 60 minutes and then quenched with a 12.5 mM EDTA (ethylenediamine tetraacetic acid) solution. The plate is then developed with the addition of Europium-labeled antibody for a final volume of 20 uL and is then incubated for 30 minutes in darkness. Plates are read in a PHERASTAR® plate reader. Data are analyzed in GraphPad PRISM.

[2] = target: T2, TYRO3 (Homo sapiens, UniProt Q06418); assay: TR-FRET kinase activity assay, TYRO3; format: biochemical; details: ATP at Km, 60 minutes
T2 sequence (Q06418 41-890): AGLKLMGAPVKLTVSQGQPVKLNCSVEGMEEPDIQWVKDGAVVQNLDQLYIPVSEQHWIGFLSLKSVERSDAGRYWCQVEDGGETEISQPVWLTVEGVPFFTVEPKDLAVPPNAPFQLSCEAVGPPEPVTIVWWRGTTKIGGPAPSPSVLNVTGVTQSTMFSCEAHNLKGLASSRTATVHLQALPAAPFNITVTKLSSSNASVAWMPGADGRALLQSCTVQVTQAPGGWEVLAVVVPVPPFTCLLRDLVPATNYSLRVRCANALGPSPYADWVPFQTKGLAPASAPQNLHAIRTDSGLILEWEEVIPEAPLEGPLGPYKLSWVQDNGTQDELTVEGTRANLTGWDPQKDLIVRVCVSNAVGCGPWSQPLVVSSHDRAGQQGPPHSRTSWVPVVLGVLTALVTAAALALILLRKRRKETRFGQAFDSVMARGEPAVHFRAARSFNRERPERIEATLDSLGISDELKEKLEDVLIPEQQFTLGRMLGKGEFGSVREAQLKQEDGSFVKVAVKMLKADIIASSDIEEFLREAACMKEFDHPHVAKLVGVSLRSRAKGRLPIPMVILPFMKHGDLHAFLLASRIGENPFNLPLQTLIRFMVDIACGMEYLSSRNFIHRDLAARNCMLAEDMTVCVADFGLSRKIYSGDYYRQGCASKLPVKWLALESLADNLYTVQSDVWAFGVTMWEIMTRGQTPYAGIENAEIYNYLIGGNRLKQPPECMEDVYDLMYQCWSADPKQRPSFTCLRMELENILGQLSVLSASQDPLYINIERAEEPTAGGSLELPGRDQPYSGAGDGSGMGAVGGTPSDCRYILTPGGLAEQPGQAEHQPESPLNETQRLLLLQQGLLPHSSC
Protocol: as §1, §2

Row | Structure (SMILES) | IC50 [1] | Mer/Flt3 ratio (FLT3 IC50/Mer IC50) [1] | IC50 [2]
1 | O[C@H]1CC[C@H](c2cnc(OC3CCNCC3)c3cnc(N[C@H]4CCCOC4)nc32)CC1 [Compound 216] | 100 to 1000 nM | ++ (a ratio of between 10 and 100) | 100 to 1000 nM
2 | CC[C@H](C)Nc1ncc2c(NC3CCOCC3)ncc([C@H]3CC[C@H](O)CC3)c2n1 [Compound 217] | ≤ 100 nM | +++ (a ratio of >100) | ≤ 100 nM
3 | C[C@@H](Nc1ncc2c(OC3CCNCC3)ncc([C@H]3CC[C@H](O)CC3)c2n1)c1ccccc1 [Compound 218] | 100 to 1000 nM | + (a ratio of >2.0 and <10) | 100 to 1000 nM
4 | CC[C@H](C)Nc1ncc2c(NC3CCN(C)CC3)ncc([C@H]3CC[C@H](O)CC3)c2n1 [Compound 220] | ≤ 100 nM | +++ (a ratio of >100) | 100 to 1000 nM
5 | CC[C@H](C)Nc1ncc2c(OC3CCN(C)CC3)ncc([C@H]3CC[C@H](O)CC3)c2n1 [Compound 221] | ≤ 100 nM | +++ (a ratio of >100) | 100 to 1000 nM
6 | CC[C@H](C)Nc1ncc2c(N3CC[C@@H](N(C)C)C3)ncc([C@H]3CC[C@H](O)CC3)c2n1 [Compound 222] | ≤ 100 nM | ++ (a ratio of between 10 and 100) | ≤ 100 nM
7 | CC[C@H](C)Nc1ncc2c(OC3C[C@H]4CC[C@@H](C3)O4)ncc([C@H]3CC[C@H](O)CC3)c2n1 (stereo partly drawn) [Compound 223] | ≤ 100 nM | ++ (a ratio of between 10 and 100) | 100 to 1000 nM
8 | O[C@H]1CC[C@H](c2cnc(OC3CCNCC3)c3cnc(NCCC(F)(F)F)nc32)CC1 [Compound 224] | ≤ 100 nM | ++ (a ratio of between 10 and 100) | 100 to 1000 nM
9 | CC[C@H](C)Nc1ncc2c(=O)n(C3CCOCC3)cc([C@H]3CC[C@H](O)CC3)c2n1 [Compound 225] | ≤ 100 nM | ++ (a ratio of between 10 and 100) | ≤ 100 nM
10 | CC[C@H](C)Nc1ncc2c(OC3CCOCC3)ncc([C@H]3CC[C@H](O)CC3)c2n1 [Compound 226] | ≤ 100 nM | +++ (a ratio of >100) | 100 to 1000 nM
11 | CC[C@H](C)Nc1ncc2c(OC3CC(C)(C)N(C)C(C)(C)C3)ncc([C@H]3CC[C@H](O)CC3)c2n1 [Compound 227] | ≤ 100 nM | +++ (a ratio of >100) | ≤ 100 nM
12 | CCC(CC)Nc1ncc2c(OC3CCNCC3)ncc([C@H]3CC[C@H](O)CC3)c2n1 [Compound 228] | ≤ 100 nM | ++ (a ratio of between 10 and 100) | 100 to 1000 nM
13 | CC[C@H](C)Nc1ncc2c(O[C@H]3CC[C@H](O)CC3)ncc([C@H]3CC[C@H](O)CC3)c2n1 [Compound 229] | ≤ 100 nM | ++ (a ratio of between 10 and 100) | 100 to 1000 nM
14 | CC[C@H](C)Nc1ncc2c(Cl)ncc([C@H]3CC[C@H](O)CC3)c2n1 [Compound 230] | ≤ 100 nM | +++ (a ratio of >100) | 100 to 1000 nM
15 | CC[C@H](C)NC1=NC2C([C@H]3CC[C@H](O)CC3)=CN(C(C)C)C(=O)C2C=N1 (stereo partly drawn) [Compound 231] | ≤ 100 nM | +++ (a ratio of >100) | ≤ 100 nM
16 | O[C@H]1CC[C@H](c2cnc(OC3CCNCC3)c3cnc(N[C@@H]4CCCOC4)nc32)CC1 [Compound 232] | 100 to 1000 nM | + (a ratio of >2.0 and <10) | 100 to 1000 nM
17 | CC[C@H](C)Nc1ncc2c(OC3CCN(S(C)(=O)=O)CC3)ncc([C@H]3CC[C@H](O)CC3)c2n1 [Compound 233] | ≤ 100 nM | +++ (a ratio of >100) | ≤ 100 nM
18 | CC[C@H](C)Nc1ncc2c(=O)n(C3CCN(S(C)(=O)=O)CC3)cc([C@H]3CC[C@H](O)CC3)c2n1 [Compound 234] | ≤ 100 nM | +++ (a ratio of >100) | ≤ 100 nM
19 | CCOc1ncc([C@H]2CC[C@H](O)CC2)c2nc(N[C@@H](C)CC)ncc12 [Compound 235] | ≤ 100 nM | +++ (a ratio of >100) | ≤ 100 nM
20 | CCOc1ncc(CC2CCNCC2)c2nc(N[C@@H](C)CC)ncc12 [Compound 236] | ≤ 100 nM | + (a ratio of >2.0 and <10) | 100 to 1000 nM
21 | CC[C@H](C)Nc1ncc2c(OC3C[C@H]4CC[C@@H](C3)O4)ncc([C@H]3CC[C@H](O)CC3)c2n1 (stereo partly drawn) [Compound 237] | ≤ 100 nM | +++ (a ratio of >100) | 1000 to 10000 nM
22 | CC[C@H](C)Nc1ncc2c(NC34CCC(O)(CC3)CC4)ncc([C@H]3CC[C@H](O)CC3)c2n1 [Compound 238] | ≤ 100 nM | ++ (a ratio of between 10 and 100) | 1000 to 10000 nM
23 | CC[C@H](C)Nc1ncc2c(OC3CCN(C)CC3)ncc([C@H]3CC[C@H](O)CC3)c2n1 [Compound 239] | ≤ 100 nM | +++ (a ratio of >100) | ≤ 100 nM
24 | CC[C@H](C)Nc1ncc2c(C3CCN(C)CC3)ncc([C@H]3CC[C@H](O)CC3)c2n1 [Compound 240] | ≤ 100 nM | +++ (a ratio of >100) | 100 to 1000 nM
